Assay results as given in patent US9617260B2, “Inhibitors of bruton's tyrosine kinase” (Hoffmann-La Roche Inc., priority 2013, dated 2017).

These compounds were tested against Bruton's Tyrosine Kinase (BTK), inactivated state (Homo sapiens (Human), UniProt Q06187) (assay: Bruton's Tyrosine Kinase (BTK) Inhibition TR-FRET (Time Resolved FRET) competition assay). Details: competition with Kinase Tracer 178 for BTK-Eu; plates incubated 18-24 h at 14° C.
Assay type: binding
Procedure: Bruton's Tyrosine Kinase (BTK) Inhibition TR-FRET (Time Resolved FRET) Assay
This BTK competition assay measures compound potency (IC50) for the inactivated state of Bruton's Tyrosine Kinase using FRET (Förster/Fluoresence Resonance Energy Transfer) technology. The BTK-Eu complex was incubated on ice one hour prior to use at a starting concentration of 50 nM BTK-Bioease™: 10 nM Eu-streptavidin (Perkin-Elmer Catalog #AD0062). The assay buffer consisted of 20 mM HEPES (pH 7.15), 0.1 mM DTT, 10 mM MgCl2, 0.5 mg/ml BSA with 3% Kinase Stabilizer (Fremont Biosolutions, Catalog #STB-K02). After 1 h, the reaction mixture from above was diluted 10 fold in assay buffer to make 5 nM BTK: 1 nM Eu-Streptavidin complex (donor fluorophore). 18 μl of a mixture of 0.11 nM BTK-Eu and 0.11 nM Kinase Tracer 178 (Invitrogen, Catalog #PV5593,) with BTK-Eu alone as no negative control, was then dispensed into 384-well flat bottom plates (Greiner, 784076). Compounds to be tested in assay were prepared as 10× concentrations and serial dilution in half-log increments was performed in DMSO so as to generate 10 point curves. To initiate the FRET reaction, compounds prepared as 10× stock in DMSO was added to the plates and the plates were incubated 18-24 h at 14° C.
After the incubation the plates were read on a BMG Pherastar Fluorescent plate reader (or equivalent) and used to measure the emission energy from the europium donor fluorophore (620 nm emission) and the FRET (665 nm emission). The negative control well values were averaged to obtain the mean minimum. The positive “no inhibitor” control wells were averaged to obtain the mean maximum. Percent of maximal FRET was calculated using following equation: % max FRET=100×[(FSRcmpd−FSRmean min)/(FSRmean max−FSRmean min)]
where FSR=FRET Signal ratio. % Max FRET curves were plotted in Activity Base (Excel) and the IC50 (%), hill slope, z′ and % CV were determined The mean IC50 and standard deviation will be derived from duplicate curves (singlet inhibition curves from two independent dilutions) using Microsoft Excel.
Representative compound data for this assay are listed below in Table II.

Bruton's Tyrosine Kinase (BTK), inactivated state, sequence (Q06187 whole entry): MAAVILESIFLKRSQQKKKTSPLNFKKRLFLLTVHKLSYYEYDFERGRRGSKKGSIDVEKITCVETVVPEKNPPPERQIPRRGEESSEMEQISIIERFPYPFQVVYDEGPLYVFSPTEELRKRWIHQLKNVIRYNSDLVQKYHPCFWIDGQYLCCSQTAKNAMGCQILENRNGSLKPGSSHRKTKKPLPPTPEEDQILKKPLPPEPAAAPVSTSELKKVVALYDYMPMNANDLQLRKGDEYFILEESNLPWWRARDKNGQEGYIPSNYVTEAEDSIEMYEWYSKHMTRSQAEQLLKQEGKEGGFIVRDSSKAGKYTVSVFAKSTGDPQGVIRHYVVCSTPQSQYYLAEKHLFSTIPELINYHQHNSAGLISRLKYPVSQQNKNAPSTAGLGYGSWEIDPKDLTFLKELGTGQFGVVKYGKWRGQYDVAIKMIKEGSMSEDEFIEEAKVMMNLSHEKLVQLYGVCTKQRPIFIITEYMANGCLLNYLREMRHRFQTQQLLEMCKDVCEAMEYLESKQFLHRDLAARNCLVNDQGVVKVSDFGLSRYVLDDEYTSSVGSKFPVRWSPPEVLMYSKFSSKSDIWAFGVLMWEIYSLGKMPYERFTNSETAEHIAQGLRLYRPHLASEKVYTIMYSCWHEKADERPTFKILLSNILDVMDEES

Row | SMILES | IC50
1 | C=CC(=O)N1CCC(c2c[nH]c3ncc(NC(=O)OCc4ccccc4)cc23)CC1 [Compound 31, benzyl N-[3-(1-prop-2-enoylpiperidin-4-yl)-1H-pyrrolo[2,3-b]pyridin-5-yl]carbamate] | 0.6 nM
2 | CC(=O)C(=O)Nc1cccc(-c2c[nH]c3ncc(NC(=O)OCc4cccc(C#N)c4)cc23)c1 [Compound 20, (3-cyanophenyl)methyl N-[3-[3-(2-oxopropanoylamino)phenyl]-1H-pyrrolo[2,3-b]pyridin-5-yl]carbamate] | 137 nM
3 | C=C(C(=O)Nc1cccc(-c2c[nH]c3ncc(NC(=O)OCc4cccc(F)c4)cc23)c1)C(F)(F)F [Compound 18, (3-fluorophenyl)methyl N-[3-[3-[2-(trifluoromethyl)prop-2-enoylamino]phenyl]-1H-pyrrolo[2,3-b]pyridin-5-yl]carbamate] | 123 nM
4 | C=CC(=O)N1CCC(c2c[nH]c3ncc(NC(=O)OC(C)C)cc23)CC1 [Compound 32, propan-2-yl N-[3-(1-prop-2-enoylpiperidin-4-yl)-1H-pyrrolo[2,3-b]pyridin-5-yl]carbamate] | 27 nM
5 | C=CC(=O)N(C)c1cccc(-c2c[nH]c3ncc(NC(=O)OC(C)C)cc23)c1 [Compound 6, propan-2-yl N-[3-[3-[methyl(prop-2-enoyl)amino]phenyl]-1H-pyrrolo[2,3-b]pyridin-5-yl]carbamate] | 24 nM
6 | CC(=O)C(=O)Nc1cccc(-c2c[nH]c3ncc(NC(=O)OCc4ccccc4Cl)cc23)c1 [Compound 14, (2-chlorophenyl)methyl N-[3-[3-(2-oxopropanoylamino)phenyl]-1H-pyrrolo[2,3-b]pyridin-5-yl]carbamate] | 30 nM

Second part, the compound after the results:

Row | IC50 | SMILES
7 | 323 nM | O=C(Nc1cnc2[nH]cc(-c3cccc(NC(=O)C(=O)c4ccccc4)c3)c2c1)OCc1ccccc1 [Compound 13, benzyl N-[3-[3-[(2-oxo-2-phenylacetyl)amino]phenyl]-1H-pyrrolo[2,3-b]pyridin-5-yl]carbamate]
8 | 8 nM | CCC(=O)C(=O)Nc1cccc(-c2c[nH]c3ncc(NC(=O)OCc4ccccc4)cc23)c1 [Compound 4, benzyl N-[3-[3-(2-oxobutanoylamino)phenyl]-1H-pyrrolo[2,3-b]pyridin-5-yl]carbamate]
9 | 72 nM | C=C(C(=O)Nc1cccc(-c2c[nH]c3ncc(NC(=O)OCc4ccccc4)cc23)c1)C(F)(F)F [Compound 9, benzyl N-[3-[3-[2-(trifluoromethyl)prop-2-enoylamino]phenyl]-1H-pyrrolo[2,3-b]pyridin-5-yl]carbamate]
10 | 7 nM | CN(C)C/C=C/C(=O)Nc1cccc(-c2c[nH]c3ncc(NC(=O)OCc4ccccc4)cc23)c1 [Compound 1, benzyl N-[3-[3-[[(E)-4-(dimethylamino)but-2-enoyl]amino]phenyl]-1H-pyrrolo[2,3-b]pyridin-5-yl]carbamate]
11 | 206 nM | CCC(C)C(=O)C(=O)Nc1cccc(-c2c[nH]c3ncc(NC(=O)OCc4ccccc4)cc23)c1 (centres unmarked) [Compound 11, benzyl N-[3-[3-[(3-methyl-2-oxopentanoyl)amino]phenyl]-1H-pyrrolo[2,3-b]pyridin-5-yl]carbamate]
12 | 3.6 nM | C=CC(=O)N1CC(O)(c2c[nH]c3ncc(NC(=O)OCc4ccccc4)cc23)C1 [Compound 34, benzyl N-[3-(3-hydroxy-1-prop-2-enoylazetidin-3-yl)-1H-pyrrolo[2,3-b]pyridin-5-yl]carbamate]
13 | 60 nM | CCC(=O)C(=O)Nc1cccc(-c2c[nH]c3ncc(NC(=O)OCc4ccccc4Cl)cc23)c1 [Compound 15, (2-chlorophenyl)methyl N-[3-[3-(2-oxobutanoylamino)phenyl]-1H-pyrrolo[2,3-b]pyridin-5-yl]carbamate]
14 | 49 nM | CCC(=O)C(=O)Nc1cccc(-c2c[nH]c3ncc(NC(=O)OC(C)C)cc23)c1 [Compound 8, propan-2-yl N-[3-[3-(2-oxobutanoylamino)phenyl]-1H-pyrrolo[2,3-b]pyridin-5-yl]carbamate]
